# Calls of active or inactive are those of the source. No cut-off for these calls is given here. Peptide text beside a SMILES is read from it.
# How the values were obtained:
# [1] = target: G protein-coupled receptor kinase 5 (Homo sapiens) (UniProt P34947); assay: Inhibition of GRK-5 (unknown origin)-mediated phosphorylation of rhodopsin in bovine-rod outer segment membranes incubated under white light condition for 15 mins measured after 30 mins by autoradiography in presence of [gamma32P]-ATP; type: cell membranes; set-up: concentration or dose not given beside the values
# Chain of G protein-coupled receptor kinase 5 (Homo sapiens) (P34947 whole entry, looked up): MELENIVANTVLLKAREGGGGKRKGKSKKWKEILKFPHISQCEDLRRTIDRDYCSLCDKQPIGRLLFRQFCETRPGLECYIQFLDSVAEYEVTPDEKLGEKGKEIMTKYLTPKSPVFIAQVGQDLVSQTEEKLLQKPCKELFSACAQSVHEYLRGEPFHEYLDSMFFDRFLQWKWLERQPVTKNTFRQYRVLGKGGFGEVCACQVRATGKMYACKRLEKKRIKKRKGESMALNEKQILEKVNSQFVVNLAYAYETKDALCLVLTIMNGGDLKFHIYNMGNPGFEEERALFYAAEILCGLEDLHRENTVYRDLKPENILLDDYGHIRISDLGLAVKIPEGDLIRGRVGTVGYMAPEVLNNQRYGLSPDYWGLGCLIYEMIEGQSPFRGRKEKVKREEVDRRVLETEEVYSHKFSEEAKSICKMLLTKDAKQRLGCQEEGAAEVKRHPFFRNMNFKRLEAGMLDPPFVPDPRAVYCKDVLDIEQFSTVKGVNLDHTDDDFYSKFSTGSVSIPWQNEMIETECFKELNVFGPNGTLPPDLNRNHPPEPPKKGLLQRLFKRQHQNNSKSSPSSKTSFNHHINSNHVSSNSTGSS
# [2] = target: T1, Beta-adrenergic receptor kinase 1 (Homo sapiens) (UniProt P25098); assay: Inhibition of GRK-2 (unknown origin)-mediated phosphorylation of rhodopsin in bovine-rod outer segment membranes at 1 uM incubated under white light condition for 15 mins measured after 30 mins by autoradiography in presence of [gamma32P]-ATP; type: cell membranes
# T1 sequence (whole entry): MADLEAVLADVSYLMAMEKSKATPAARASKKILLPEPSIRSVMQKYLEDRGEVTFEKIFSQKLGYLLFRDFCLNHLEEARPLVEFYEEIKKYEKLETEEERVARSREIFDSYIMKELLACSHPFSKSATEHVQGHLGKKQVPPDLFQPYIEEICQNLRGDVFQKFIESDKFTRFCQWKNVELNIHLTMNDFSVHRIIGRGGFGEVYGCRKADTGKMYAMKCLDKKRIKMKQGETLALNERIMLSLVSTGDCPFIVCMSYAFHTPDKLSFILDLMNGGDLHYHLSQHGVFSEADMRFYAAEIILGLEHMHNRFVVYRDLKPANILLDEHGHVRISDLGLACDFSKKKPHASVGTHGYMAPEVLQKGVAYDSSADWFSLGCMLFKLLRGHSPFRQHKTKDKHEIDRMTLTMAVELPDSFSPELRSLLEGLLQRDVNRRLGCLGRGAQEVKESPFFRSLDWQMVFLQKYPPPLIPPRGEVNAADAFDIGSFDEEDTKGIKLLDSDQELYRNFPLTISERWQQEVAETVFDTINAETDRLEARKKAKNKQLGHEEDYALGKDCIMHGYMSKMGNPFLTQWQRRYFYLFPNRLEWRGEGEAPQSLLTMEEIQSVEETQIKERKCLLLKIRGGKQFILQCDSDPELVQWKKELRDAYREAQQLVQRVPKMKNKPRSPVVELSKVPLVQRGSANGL
# HEK293 [3] = assay: Cellular uptake in HEK293 cells overexpressing human beta2 adrenergic receptor at 1 uM after 1 hr by confocal microscopic analysis; type: ADME, cell-based; conditions: hek293, 1 h
# [4] = target: T2, Beta-adrenergic receptor kinase 1 (Homo sapiens, UniProt P25098); assay: (§1) Inhibition of GRK-2 (unknown origin)-mediated phosphorylation of rhodopsin in bovine-rod outer segment membranes incubated under white light condition for 15 mins measured after 30 mins by autoradiography in presence of [gamma32P]-ATP; type: cell membranes
# T2 sequence (P25098 whole entry): T1 sequence (whole entry)
# HEK293 [5] = assay: Cellular uptake in HEK293 cells overexpressing human beta2 adrenergic receptor at 1 to 10 uM after 1 hr by fluorescence assay; type: ADME, cell-based; conditions: hek293, 1 h
# [6] = target: T1, Beta-adrenergic receptor kinase 1 (Homo sapiens); assay: as §1; type: cell membranes
# [7] = target: T1, Beta-adrenergic receptor kinase 1 (Homo sapiens); assay: Inhibition of GRK2 in HEK293 cells overexpressing human beta2 adrenergic receptor assessed as effect on isoproterenol-induced cAMP production at 1 uM preincubated for 1 hr prior to isoproterenol-stimulation measured after 15 mins by enzyme immunoassay; type: cell-based
# [8] = target: T1, Beta-adrenergic receptor kinase 1 (Homo sapiens); assay: Inhibition of GRK2 in HEK293 cells overexpressing human beta2 adrenergic receptor assessed as effect on cAMP production at 1 uM after 1 hr by enzyme immunoassay; type: cell-based
# [9] = target: T1, Beta-adrenergic receptor kinase 1 (Homo sapiens); assay: Inhibition of GRK2 in HEK293 cells overexpressing human beta2 adrenergic receptor assessed as increase in beta2 adrenergic receptor density at 1 uM after 1 hr by gamma counting analysis in presence of [125I]cyanopindolol; type: cell-based
smiles,measurement,setting,value
CC(C)C[C@@H]1NC(=O)CNC(=O)[C@H](CO)NC(=O)[C@H](Cc2cnc[nH]2)NC(=O)[C@@H](CCCNC(=N)N)NC(=O)[C@H](CCCNC(=N)N)NC(=O)[C@H](CC(C)C)NC1=O,inhibition,[1],< 5%
same,inhibition,[2],47.8%
CC(C)C[C@H](NC(=O)CN)C(=O)N[C@@H](CC(C)C)C(=O)N[C@@H](CCCNC(=N)N)C(=O)N[C@H](CCCNC(=N)N)C(=O)N[C@@H](Cc1cnc[nH]1)C(=O)N[C@@H](CO)C(=O)O,inhibition,[1],< 5%
same,inhibition,[2],47.6%
CC(C)C[C@@H]1NC(=O)[C@H](CCCCN)NC(=O)[C@H](CC(=O)O)NC(=O)[C@H](Cc2cnc[nH]2)NC(=O)[C@@H](CCCNC(=N)N)NC(=O)[C@H](CCCNC(=N)N)NC(=O)[C@H](CC(C)C)NC1=O,inhibition,[1],< 5%
same,inhibition,[2],36.3%
CC(C)C[C@@H]1NC(=O)[C@H](CC(C)C)NC(=O)[C@H](CCCCN)NC(=O)[C@H](CC(=O)O)NC(=O)[C@H](Cc2cnc[nH]2)NC(=O)CNC(=O)[C@H](CCCNC(=N)N)NC1=O (cyclo(DKLLRGH)),inhibition,[1],< 5%
same,inhibition,[2],47.2%
CC[C@H](C)[C@H](NC(=O)[C@H](CO)NC(=O)[C@H](Cc1cnc[nH]1)NC(=O)[C@@H](CCCN=C(N)N)NC(=O)[C@H](CCCN=C(N)N)NC(=O)[C@H](CC(C)C)NC(=O)[C@H](CC(C)C)NC(=O)CN)C(=O)O,Drug uptake,HEK293 [3],Active
same,IC50,[4],0.34 µM
same,Drug uptake,HEK293 [5],Active
CC[C@H](C)[C@@H]1NC(=O)[C@H](CO)NC(=O)[C@H](Cc2cnc[nH]2)NC(=O)[C@@H](CCCNC(=N)N)NC(=O)[C@H](CCCNC(=N)N)NC(=O)[C@H](CC(C)C)NC(=O)[C@H](CC(C)C)NC(=O)CNC1=O,inhibition,[1],< 5%
same,inhibition,[2],37.2%
CC[C@H](C)[C@H](NC(=O)[C@H](CO)NC(=O)[C@H](Cc1cnc[nH]1)NC(=O)[C@@H](CCCNC(=N)N)NC(=O)[C@H](CCCNC(=N)N)NC(=O)[C@H](CC(C)C)NC(=O)[C@H](CC(C)C)NC(=O)CN)C(=O)O,inhibition,[6],Dose-dependent effect
same,inhibition,[1],< 5%
same,inhibition,[7],Active
same,inhibition,[2],49.6%
same,inhibition,[8],Active
same,inhibition,[9],Active

# Reference: ChEMBL document CHEMBL2434845, “Design, synthesis and efficacy of novel G protein-coupled receptor kinase 2 inhibitors” (Eur J Med Chem, 2013)
